The structures appear in SMILES notation. Activity calls are given as the source filed them.

Drawing on ChEMBL document CHEMBL4418495, “Entpd5 inhibitors” (2012), this text covers Activity and inhibition for eleven compounds.

The test system of assay [1] is LNCaP. The experiment in a line: Antitumor activity against human LNCAP cells xenografted in mouse assessed as induction of tumor shrinkage at 1 to 100 mg/kg, ip dosed every other day and measured after 6 weeks by microscopy. The format is functional, organism-based.
Assay [2] deals with T1, Ectonucleoside triphosphate diphosphohydrolase 5 (Mus musculus) (UniProt Q9WUZ9).
T1 sequence (whole entry): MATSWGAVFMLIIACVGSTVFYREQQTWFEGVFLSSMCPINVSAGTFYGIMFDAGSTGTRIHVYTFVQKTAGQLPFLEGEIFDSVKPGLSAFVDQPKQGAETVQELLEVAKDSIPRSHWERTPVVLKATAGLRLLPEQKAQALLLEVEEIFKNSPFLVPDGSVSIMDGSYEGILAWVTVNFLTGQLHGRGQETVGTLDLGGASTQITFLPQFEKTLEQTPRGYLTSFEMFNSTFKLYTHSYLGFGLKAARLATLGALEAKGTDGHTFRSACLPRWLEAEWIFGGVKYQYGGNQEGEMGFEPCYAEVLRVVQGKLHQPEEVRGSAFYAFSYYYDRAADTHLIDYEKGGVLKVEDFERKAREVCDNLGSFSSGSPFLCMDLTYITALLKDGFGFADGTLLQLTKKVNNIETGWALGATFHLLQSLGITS
Nature of the assay: Inhibition of ENTPD5 in PTEN knockout mouse MEF cells assessed as induction of ER stress by measuring increase in GRP78/BiP expression at 30 uM incubated for 24 hrs by Western blotting analysis. The format is cell-based. On the technique in general: Immunoblotting shows a protein as a band on a membrane.

Assay [3] has as its target T2, Uridylate kinase (Escherichia coli (strain K12)) (UniProt P0A7E9).
T2 sequence (whole entry): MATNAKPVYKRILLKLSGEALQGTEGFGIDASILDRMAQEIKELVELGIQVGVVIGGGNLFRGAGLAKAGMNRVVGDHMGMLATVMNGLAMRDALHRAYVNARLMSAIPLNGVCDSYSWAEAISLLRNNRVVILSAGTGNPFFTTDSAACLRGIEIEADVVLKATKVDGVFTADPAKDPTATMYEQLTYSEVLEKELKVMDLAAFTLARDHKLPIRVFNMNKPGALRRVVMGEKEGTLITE
The experiment in a line: Inhibition of recombinant Escherichia coli UMP kinase pyrH catalyzed UMP phosphorylation in presence of GTP and ATP incubated for 1 hr by luminescence based assay.

Assay [4] concerns the target T3, Nucleoside diphosphate phosphatase ENTPD5 (Homo sapiens) (UniProt O75356).
T3 sequence (whole entry): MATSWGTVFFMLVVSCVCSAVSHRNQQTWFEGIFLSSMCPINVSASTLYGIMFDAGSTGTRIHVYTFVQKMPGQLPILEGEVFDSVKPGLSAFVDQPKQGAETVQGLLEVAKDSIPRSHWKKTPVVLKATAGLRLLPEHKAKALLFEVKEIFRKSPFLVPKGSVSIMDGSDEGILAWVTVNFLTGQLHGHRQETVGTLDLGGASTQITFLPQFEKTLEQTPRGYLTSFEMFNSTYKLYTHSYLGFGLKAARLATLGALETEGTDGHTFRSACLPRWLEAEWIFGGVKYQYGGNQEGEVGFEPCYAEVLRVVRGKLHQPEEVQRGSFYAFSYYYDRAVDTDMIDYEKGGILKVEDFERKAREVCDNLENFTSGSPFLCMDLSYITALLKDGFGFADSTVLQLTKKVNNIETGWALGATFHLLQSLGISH
Nature of the assay: Inhibition of human recombinant ENTPD5 expressed in insect cells assessed as reduction in UDP hydrolysis at 1 uM incubated for 1 hr in presence of UMP, GTP and ATP by Escherichia coli UMP kinase pyrH catalyzed UMP phosphorylation coupled luciferase assay.

For assay [5], the target named is T3, Nucleoside diphosphate phosphatase ENTPD5 (Homo sapiens). The experiment in a line: Inhibition of human recombinant ENTPD5 expressed in insect cells assessed as reduction in UDP hydrolysis up to 10 uM incubated for 1 hr in presence of UMP, GTP and ATP by Escherichia coli UMP kinase pyrH catalyzed UMP phosphorylation coupled luciferase assay.
The test system of assay [6] is LNCaP. The experiment in a line: Antitumor activity against human LNCAP cells xenografted in mouse assessed as reduction in cells left in matrigels at 1 to 100 mg/kg, ip dosed every other day and measured after 6 weeks by hematoxylin and eosin staining based microscopy. The format is functional, organism-based. For orientation: Xenograft models place foreign cells or tissue in a host animal.

For assay [7], the target named is T3, Nucleoside diphosphate phosphatase ENTPD5 (Homo sapiens). Nature of the assay: Inhibition of human recombinant ENTPD5 expressed in insect cells assessed as reduction in reduction in UDP hydrolysis by measuring inorganic phosphate release incubated for 1 hr by malachite green based assay.

As to `N=C1S/C(=C\c2ccc(N3CCOCC3)cc2)C(=O)N1c1ccc(Br)cc1`, the outcome with LNCaP [1] and with LNCaP [6] was Active. Moreover, the inhibition entry in assay [2], in assay [4] and in assay [7] was “Active” throughout. Besides, the inhibition result in assay [3] was “inactive”. Besides, the inhibition result in assay [5] was “Dose-dependent effect”.
In the case of `O=C(Nc1ccccc1)NC(N1CCOCC1)C(Cl)(Cl)Cl` (stereo not drawn), the result in the assay with LNCaP [1] and in the assay with LNCaP [6] was Active. Moreover, the inhibition result in assay [2], in assay [4] and in assay [7] was “Active” throughout. For the same compound, in assay [3], the inhibition entry was “inactive”. The inhibition entry in assay [5] was “Dose-dependent effect”.
Take `Cc1cc(/C=C2\C(=O)NC(=S)N(c3ccc(Cl)cc3)C2=O)c(C)n1-c1ccc([N+](=O)[O-])cc1`: the result with LNCaP [1] and with LNCaP [6] was Active. Besides, the inhibition entry in assay [2], in assay [4] and in assay [7] was “Active” in each case. In assay [3], the inhibition result is “inactive”. Moreover, the inhibition entry in assay [5] is “Dose-dependent effect”.
For the compound `O=C1NC(=O)C(=Cc2ccc(-c3ccc(I)cc3)o2)C(=O)N1`, the result in the assay on LNCaP [1] and in the assay with LNCaP [6] was Active. In addition, the inhibition entry in assay [2], in assay [4] and in assay [7] was “Active” throughout. In addition, in assay [3], the inhibition result is “inactive”. The inhibition entry in assay [5] was “Dose-dependent effect”.
As to `O=C1NC(=S)N(c2ccc(Cl)cc2)C(=O)/C1=C\c1ccc(-c2ccc([N+](=O)[O-])cc2)o1`, the result with LNCaP [1] and in the assay with LNCaP [6] was Active. Also, the inhibition result in assay [2], in assay [4] and in assay [7] was “Active” in each case. In addition, the inhibition result in assay [3] is “inactive”. In addition, the inhibition result in assay [5] was “Dose-dependent effect”.
`O=C(Oc1ccc2ccccc2c1)c1ccc2c(c1)C1C=CCC1C(C(=O)O)N2` (stereo not drawn): the outcome with LNCaP [1] and in the assay on LNCaP [6] was Active. Further, the inhibition entry in assay [2], in assay [4] and in assay [7] was “Active” each time. Besides, in assay [3], the inhibition result is “inactive”. Moreover, in assay [5], the inhibition result was “Dose-dependent effect”.
Take `O=C1NC(=S)NC(=O)C1=Cc1ccc(-c2ccc(Cl)c(Cl)c2)o1`: the result in the assay with LNCaP [1] and with LNCaP [6] was Active. The inhibition result in assay [2], in assay [4] and in assay [7] was “Active” throughout. The inhibition entry in assay [3] is “inactive”. Also, the inhibition result in assay [5] is “Dose-dependent effect”.
Regarding `O=C1/C(=C/c2ccc(O)c([N+](=O)[O-])c2)SC(=S)N1c1cccc(Cl)c1`, the outcome in the assay on LNCaP [1] and in the assay with LNCaP [6] was Active. Besides, the inhibition entry in assay [2], in assay [4] and in assay [7] was “Active” in each case. Also, the inhibition result in assay [3] was “inactive”. The inhibition entry in assay [5] is “Dose-dependent effect”.
`CCOc1cc(/C=C2\SC(=S)NC2=O)cc(Br)c1OCc1cccc2ccccc12`: in assay [3], the inhibition result is “inactive”. Besides, the inhibition result in assay [4] and in assay [7] was “Active” throughout. Besides, the inhibition result in assay [5] is “Dose-dependent effect”.
With `CCCCCCCCCCCCCCCC[N+](C)(C)CCN(Cc1ccc(OC)cc1)c1ncccn1`, the inhibition entry in assay [3] was “inactive”. In addition, the inhibition result in assay [4] and in assay [7] was “Active” in each case. Also, the inhibition entry in assay [5] is “Dose-dependent effect”.
With `C=CCN1C(=O)/C(=C\c2cccn2C)C(=O)NC1=S`, the inhibition entry in assay [3] is “inactive”. The inhibition result in assay [4] and in assay [7] was “Active” in each case. Moreover, the inhibition entry in assay [5] is “Dose-dependent effect”.
